From patent publication US20250326722A1 (SHANGHAI HANSOH BIOMEDICAL CO., LTD., priority 2022, published 2025)

How the values were obtained:
[1] = biological target: PCSK9 secreted by HepG2 cells (Homo sapiens (Human), UniProt Q8NBP7); experiment: Effect on the concentration of PCSK9 secreted by HepG2 cells (ELISA); type: cell-based; conditions: 48 hours incubation, read-out: Inhibitory activity on PCSK9, IC50
From the text: • 1. Experimental objective: To detect the inhibitory effect of the compounds on PCSK9. • 2. Experimental instruments and reagents: • 2.1 Instruments:
• CircuLex Human PCSK9 ELISA kit (MBL: CY-8079); • DMEM (Gibco: 31966-021) • FBS (Sigma: S5394) • Compound plate (Thermo: 1353506) • Complete culture medium: DMEM+10% FBS+1×P/S; • Experimental culture medium: DMEM+10% FBS • Cell strain: HepG2 (ATCC: HB-8065)
A self-adhesive seal was applied, the plate was placed on a plate shaker at room temperature, gently shaken, uniformly mixed, and incubated for 1 hour. • 11) The plate was placed on the plate washer, the washing liquid was set to 350 μL per well, and the plate was washed 4 times repeatedly. • 12) 100 μL/well of an HRP-conjugated detection antibody was added, a self-adhesive seal was applied, and the plate was placed on the plate shaker, well mixed uniformly, and incubated for 1 hour. • 13) The plate was placed on the plate washer, the washing liquid was set to 350 μL per well, and the plate was washed 4 times repeatedly. • 14) 100 μL/well of Substrate reagent was added, and the plate was placed in the dark, applied with a self-adhesive seal, placed on the plate shaker, well mixed uniformly, and incubated for 10-20 minutes. • 15) 100 μL/well of Stop solution (1N H2SO4) was added and mixed uniformly. • 16) The optical density (OD) value in each well was measured in sequence at a wavelength of 450 nm by the microplate reader. Detection was carried out within 30 min after the reaction was stopped.
After the OD values were read by the microplate reader, the OD value of the 0-concentration standard in the standard group was subtracted from the OD values of the standards, control group, and samples to obtain the actual OD values for these wells. A standard curve was plotted with Graphpad and the concentration of the sample was calculated. If the dilution was performed during the sample detection, the calculated sample concentration was necessarily multiplied by the corresponding dilution ratio in the final calculation, which was the actual concentration of the sample. Inhibition rate=(actual concentration in control-actual concentration in sample)/actual concentration in control*100. According to the inhibition rates corresponding to the different concentrations, IC50 was derived by Graphpad.

[2] = Pharmacokinetic determination in mice (plasma); type: in vivo, C57BL/6J mice; conditions: C57 mice, PO administration, 5 mpk
Experimental: C57BL/6J mice were used as test animals to study the pharmacokinetic behavior of the compounds of the present disclosure in mice (plasma) after oral and intravenous administration.
C57 mice, male, purchased from Shanghai Bk Lab Animal Co., Ltd., with animal production license number (SCXK (Shanghai) 2013-0006 NO.311620400001794).
• Preparation of oral drug: 10% Solutol HS15
10 g of Solutol HS15 solid was weighed, dissolved in 90 mL of pure water, uniformly mixed, stirred, and ultrasonically treated to form a clear solution.
The compound of the present disclosure was weighed and dissolved in this solution, uniformly shaken, and ultrasonically treated for 15 minutes to obtain a colorless clear solution with a concentration of 0.5 mg/mL. • Preparation of intravenous drug: 5% DMSO+10% Solutol HS15+85% PBS […]
3 male C57 mice were fasted overnight and then respectively administered PO at a dose of 5 mg/kg and a volume of 10 mL/kg. […]
Before and after administration of mice, 0.04 mL of blood was collected from the orbit at 0.083 (iv), 0.25, 0.5, 1, 2, 4, 8, and 24 hours, and placed in EDTA-K2 test tubes, which was centrifuged at 6000 rpm at 4° C. for 6 min to separate plasma which was stored at −80° C.; and the […] were fed 4 h after administration.
The final determination results were obtained by using an LCMS/MS method.
The main pharmacokinetic parameters were calculated using WinNonlin 6.1.

PCSK9 secreted by HepG2 cells, sequence (Q8NBP7 153-692): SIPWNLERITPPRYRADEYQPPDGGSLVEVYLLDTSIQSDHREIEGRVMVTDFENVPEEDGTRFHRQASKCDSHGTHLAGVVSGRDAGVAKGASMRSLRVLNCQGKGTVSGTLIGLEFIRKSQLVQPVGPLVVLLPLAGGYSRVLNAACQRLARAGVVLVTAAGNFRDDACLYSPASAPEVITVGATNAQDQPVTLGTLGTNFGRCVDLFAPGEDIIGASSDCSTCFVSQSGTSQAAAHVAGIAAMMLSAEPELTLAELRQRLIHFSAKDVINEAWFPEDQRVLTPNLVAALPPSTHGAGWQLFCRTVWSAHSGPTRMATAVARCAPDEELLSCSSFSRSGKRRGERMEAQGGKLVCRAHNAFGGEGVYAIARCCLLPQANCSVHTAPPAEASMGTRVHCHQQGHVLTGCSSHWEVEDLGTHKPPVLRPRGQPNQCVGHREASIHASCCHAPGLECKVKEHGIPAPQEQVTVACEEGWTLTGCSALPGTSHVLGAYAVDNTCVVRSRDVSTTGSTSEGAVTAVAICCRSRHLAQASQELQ
PCSK9 secreted by HepG2 cells, sequence (Q8NBP7 31-152 partner): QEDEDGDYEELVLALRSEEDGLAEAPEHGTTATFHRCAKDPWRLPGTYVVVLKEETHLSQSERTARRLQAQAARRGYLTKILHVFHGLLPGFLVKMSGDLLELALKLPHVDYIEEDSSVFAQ

CC1(C)C(=O)N(c2ccc(N[C@H]3CC[C@H](Nc4ncc(OC(F)F)cn4)C3)nc2)c2cccnc21 [Example 150]
IC50 [1]: 14.4 µM

O=c1ccccn1-c1ccc(N[C@H]2CC[C@H](Nc3ncc(C4CC4)nn3)C2)nc1 [Example 63, 6′-(((1S,3S)-3-((6-cyclopropyl-1,2,4-triazin-3-yl)amino)cyclopentyl)amino)-2H-[1,3′-bipyridinyl]-2-one]
IC50 [1]: 10.5 µM

O=C1c2ncc(F)cc2CN1c1ccc(N[C@H]2CC[C@H](Nc3nc4cc(C(F)(F)F)ccn4n3)C2)nc1 [Example 163, 3-Fluoro-6-(6-(((1S,3S)-3-((7-(trifluoromethyl)-[1,2,4]triazolo[1,5-a]pyridin-2-yl)amino)cyclopentyl)amino)pyridin-3-yl)-5,6-dihydro-7H-pyrrolo[3,4-b]pyridin-7-one]
IC50 [1]: 12 µM

O=C1c2ncccc2CN1c1ccc(N[C@H]2CC[C@H](Nc3ncc(OCC(F)(F)F)cn3)C2)nc1 [Example 125]
IC50 [1]: 17.3 µM | Area under the curve AUC0-∞ [2]: 24298 ng·h/mL | Half-life t1/2 [2]: 7.7 h | Mean residence time MRT [2]: 4.0 h | Plasma concentration Cmax [2]: 8545 ng/mL | Time to peak tmax [2]: 60 min

N#Cc1cnn2c(-c3ccc(N[C@H]4CC[C@H](Nc5ncc(OC(F)F)cn5)C4)nc3)ccnc12 [Example 118, 7-(6-(((1S,3S)-3-((5-(difluoromethoxy)pyrimidin-2-yl)amino)cyclopentyl)amino)pyridin-3-yl) pyrazolo[1,5-a]pyrimidine-3-carbonitrile]
IC50 [1]: 0.5 µM

CC1(C)CCCN(c2ccc(N[C@H]3CC[C@H](Nc4ncc(OC(F)F)cn4)C3)nc2)S1(=O)=O [Example 120]
IC50 [1]: 13.5 µM

O=C1c2cccnc2CN1c1ccc(N[C@H]2CC[C@H](Nc3ncc(C4CC4)cn3)C2)nc1 [Example 128]
IC50 [1]: 7.9 µM | Area under the curve AUC0-∞ [2]: 10873 ng·h/mL | Half-life t1/2 [2]: 4.0 h | Mean residence time MRT [2]: 3.7 h | Plasma concentration Cmax [2]: 4307 ng/mL | Time to peak tmax [2]: 30 min

O=S1(=O)c2ncccc2CN1c1ccc(N[C@H]2CC[C@H](Nc3ncc(C(F)(F)F)nn3)C2)nc1 [Example 154, 2-(6-(((1S,3S)-3-((6-(trifluoromethyl)-1,2,4-triazin-3-yl)amino)cyclopentyl)amino)pyridin-3-yl)-2,3-dihydroisothiazolo[5,4-b]pyridine 1,1-dioxide]
IC50 [1]: 13.2 µM

O=C1c2cc(F)cnc2CN1c1ccc(N[C@H]2CC[C@H](Nc3ncc(OC(F)F)cn3)C2)nc1 [Example 137]
IC50 [1]: 7.4 µM

O=C1c2cnccc2CN1c1ccc(N[C@H]2CC[C@H](Nc3ncc(OC(F)F)cn3)C2)nc1 [Example 75, 2-(6-(((1S,3S)-3-((5-(difluoromethoxy)pyrimidin-2-yl)amino)cyclopentyl)amino)pyridin-3-yl)-1,2-dihydro-3H-pyrrolo[3,4-c]pyridin-3-one]
IC50 [1]: 9 µM

O=c1c(-c2ccc(N[C@H]3CC[C@H](Nc4ncc(OC(F)F)cn4)C3)nc2)cnc2ccccn12 [Example 108, 3-(6-(((1S,3S)-3-((5-(difluoromethoxy)pyrimidin-2-yl)amino)cyclopentyl)amino)pyridin-3-yl)-4H-pyridino[1,2-a]pyrimidin-4-one]
IC50 [1]: 3.8 µM

O=C1c2cccnc2CN1c1ccc(N[C@H]2CC[C@H](Nc3ncc(OC(F)(F)Br)cn3)C2)nc1 [Example 123, 6-(6-(((1S,3S)-3-((5-(bromodifluoromethoxy)pyrimidin-2-yl)amino)cyclopentyl)amino)pyridin-3-yl)-6,7-dihydro-5H-pyrrolo[3,4-b]pyridin-5-one]
IC50 [1]: 3.3 µM

Cc1nc(N[C@H]2CC[C@H](Nc3ccc(N4Cc5cccnc5C4=O)cn3)C2)nc2ccccc12 [Example 131, 6-(6-(((1S,3S)-3-((4-methylquinazolin-2-yl)amino)cyclopentyl)amino)pyridin-3-yl)-5,6-dihydro-7H-pyrrolo[3,4-b]pyridin-7-one]
IC50 [1]: 2 µM

CC(C)(O)c1cccn(-c2ccc(N[C@H]3CC[C@H](Nc4ncc(OC(F)F)cn4)C3)nc2)c1=O [Example 64, 6′-(((1S,3S)-3-((5-(difluoromethoxy)pyrimidin-2-yl)amino)cyclopentyl)amino]-3-(2-hydroxyprop-2-yl)-2H-[1,3′-bipyridinyl]-2-one]
IC50 [1]: 10 µM

O=c1n(-c2ccc(N[C@H]3CC[C@H](Nc4ncc(OC(F)F)cn4)C3)nc2)c2nccnc2n1C1CC1 [Example 97, 1-Cyclopropyl-3-(6-(((1S,3S)-3-((5-(difluoromethoxy)pyrimidin-2-yl)amino)cyclopentyl)amino)pyridin-3-yl)-1,3-dihydro-2H-imidazo[4,5-b]pyrazin-2-one]
IC50 [1]: 11.6 µM

Cc1cnn2c(-c3ccc(N[C@H]4CC[C@H](Nc5ncc(OC(F)F)cn5)C4)nc3)cccc12 [Example 117, (1S,3S)—N1-(5-(difluoromethoxy)pyrimidin-2-yl)-N3-(5-(3-methylpyrazolo[1,5-a]pyridin-7-yl)pyridin-2-yl)cyclopentane-1,3-diamine]
IC50 [1]: 3.6 µM

Cc1ccn2nc(N[C@H]3CC[C@H](Nc4ccc(-n5ccccc5=O)cn4)C3)nc2c1 [Example 87, 6′-(((1S,3S)-3-((7-methyl-[1,2,4]triazolo[1,5-a]pyridin-2-yl)amino)cyclopentyl)amino)-2H-[1,3′-bipyridinyl]-2-one]
Time to peak tmax [2]: 15 min | AUC(0-inf) ([2]; male, C57BL/6J, mouse, 5 mg/kg, read-out: Area under the curve AUC0-∞): 10700 ng·h/mL | half-life ([2]; male, C57BL/6J, mouse, 5 mg/kg, read-out: Half-life t1/2 (converted)): 282 min | MRT ([2]; male, C57BL/6J, mouse, 5 mg/kg, read-out: Mean residence time MRT): 3.1 h | Cmax ([2]; male, C57BL/6J, mouse, 5 mg/kg, read-out: Plasma concentration Cmax): 5510 ng/mL

O=C1c2cc(C(F)(F)F)ncc2CN1c1ccc(N[C@H]2CC[C@H](Nc3ncc(OC(F)F)cn3)C2)nc1 [Example 138, 2-(6-(((1S,3S)-3-((5-(difluoromethoxy)pyrimidin-2-yl)amino)cyclopentyl)amino)pyridin-3-yl)-6-trifluoromethyl-2,3-dihydro-1H-pyrrolo[3,4-c]pyridin-1-one]
IC50 [1]: 0.5 µM

O=S1(=O)c2ncccc2CN1c1ccc(N[C@H]2CC[C@H](Nc3ncc(OC(F)F)cn3)C2)nc1 [Example 121]
IC50 [1]: 27.3 µM

O=S1(=O)CCCN1c1ccc(N[C@H]2CC[C@H](Nc3ncc(OC(F)F)cn3)C2)nc1 [Example 91, 2-(6-(((1S,3S)-3-((5-(difluoromethoxy)pyrimidin-2-yl)amino)cyclopentyl)amino)pyridin-3-yl)-1,1-dioxoisothiazolane]
IC50 [1]: 21.8 µM

O=C1c2nc(C3CC3)ccc2CN1c1ccc(N[C@H]2CC[C@H](Nc3ncc(OC(F)F)cn3)C2)nc1 [Example 141]
IC50 [1]: 1.8 µM

Cc1cc2c(cn1)CN(c1ccc(N[C@H]3CC[C@H](Nc4ncc(C5CC5)nn4)C3)nc1)C2=O [Example 160]
IC50 [1]: 6.2 µM

CC1(C)CCN(c2ccc(N[C@H]3CC[C@H](Nc4ncc(OC(F)F)cn4)C3)nc2)S1(=O)=O [Example 119]
IC50 [1]: 17.4 µM

O=C1c2ncc(F)cc2CN1c1ccc(N[C@H]2CC[C@H](Nc3ncc(OC(F)F)cn3)C2)nc1 [Example 136]
IC50 [1]: 9.6 µM

O=c1ccccn1-c1ccc(N[C@H]2CC[C@H](Nc3nsc(C4CC4)n3)C2)nc1 [Example 78, 6′-(((1S,3S)-3-((5-cyclopropyl-1,2,4-thiadiazol-3-yl)amino)cyclopentyl)amino)-2H-[1,3′-bipyridinyl]-2-one]
IC50 [1]: 14.2 µM

FC(F)Oc1cnc(N[C@H]2CC[C@H](Nc3ccc(-c4cccc5ncnn45)cn3)C2)nc1 [Example 139, (1S,3S)—N1-(5-([1,2,4]triazolo[1,5-a]pyridin-5-yl)pyridin-2-yl)-N3-(5-(difluoromethoxy)pyrimidin-2-yl)cyclopentane-1,3-diamine]
IC50 [1]: 10.4 µM
